Experimental data taken from US10328087B2, “Formulations for solubilizing hormones” (TherapeuticsMD, Inc., priority 2015, dated 2019).
Marks after values point to notes of the source that are not given here.

Columns and labels:
[1] = test system: ovariectomized female Crl:CD rats; test: Transdermal progesterone opposing estradiol effects on uterus and vagina in ovariectomized rats; type: in vivo, rat; conditions: for Endometrial Gland Density, LSMean / Endometrial Gland Size, LSMean / Endometrial Height, LSMean / Luminal Epithelial Cell Height, LSMean / Number of Mitotic Figures, LSMean: Day 8, EST 3 μg/kg SC alone, or with 10 mg/kg SC Prog, or with 3.125 mg/kg Dermal Prog
Experimental: Transdermally delivered progesterone blocked growth-related estrogenic effects on the endometrium and vagina in ovariectomized rats.
Thirty-two 8-week-old female Crl:CD® rats underwent ovariectomy 2 weeks prior to the start of the study. Rats were then randomly assigned to 4 groups of 8 rats each and dosed according to the schedule in Table 4. Control animals were dosed with saline or vehicle as noted. Two hours after the final dose on Day 8, the rats were humanely euthanized and the rats' vaginas and the distal portions of the rats' uterine horns were fixed and processed for histology and computer-aided morphometry.

[2] = Solubility of progesterone in solvent (concentration for clear solution); type: physicochemical
Source text: Without wishing to be bound by any particular theory, it is believed that the compositions and methods described herein address the problems associated with known steroid hormone formulations such as poor solubility, poor bioavailability, and poor stability. More specifically, it has now been discovered that terpenes are unexpectedly effective in enhancing the solubility of insoluble steroid hormones such as progesterone and likewise act as excellent penetration enhancers for these same compounds. […] The compositions can also have any combination of enhanced dissolution rates, penetration capabilities, absorption, and bioavailability.

[3] = estradiol-treated ovariectomized rats, progesterone SC or transdermally

SMILES | Endometrial Gland Density, LSMean ([1]; ovariectomized rats) | Endometrial Gland Size, LSMean ([1]; ovariectomized rats) | Endometrial Height, LSMean ([1]; ovariectomized rats) | Luminal Epithelial Cell Height, LSMean ([1]; ovariectomized rats) | Number of Mitotic Figures, LSMean ([1]; ovariectomized rats) | effect on the uterus (organ weight measurements and histology) ([1]; unopposed estradiol treatment, ovariectomized rats) | Concentration of Progesterone (mg/g) for clear solution ([2]; solvent Absolute Ethanol) [mg/g] | Concentration of Progesterone (mg/g) for clear solution ([2]; solvent d-Limonene) [mg/g] | uterine weight ([1]; estradiol-treated ovariectomized rats receiving progesterone SC or transdermally, FIGS. 5 and 6) | endometrial gland density compared to unopposed estradiol [1, 3] | luminal epithelial cell height compared to unopposed estradiol [1, 3] | estrogen-specific cellular aspects in the uterus and vagina ([1]; histology, estradiol-treated ovariectomized rats receiving progesterone SC or transdermally)
C[C@]12CC[C@@H]3c4ccc(O)cc4CC[C@H]3[C@@H]1CC[C@@H]2O [EST, (17β)-estra-1,3,5(10)-triene-3,17-diol] | 7.09^b cells/mm^2 | 4540^b μm^2 | 418^b μm | 47.8^b μm | 921^b | hypertrophy |  |  |  |  |  | 
CC(=O)[C@H]1CC[C@H]2[C@@H]3CCC4=CC(=O)CC[C@]4(C)[C@H]3CC[C@]12C [Progesterone, pregn-4-ene-3,20-dione] | 10.3^b,d cells/mm^2 | 4390^b μm^2 | 436^b μm | 31.91^b,d μm | 595^b,d |  | 57 | 204.0 | Significantly reduced | significant increase | significant reduction | not detected
